Laboratory results taken from paper PMC10850145, “Hormonal steroids induce multidrug resistance and stress response genes in Neisseria gonorrhoeae by binding to MtrR” (Nature Communications, 2024).
“And” between values parts separate entries of the source, which are not always exact repeats. Equal values may be shown once. Read-outs that look alike come from different tables or passages of the source.

Experiments:
rpoH-lacZ expression = format: cell-based, Neisseria gonorrhoeae
MtrR W136A = molecular target: T1, MtrR W136A (Neisseria gonorrhoeae, UniProt P39897, W136A); test: biochemical; format: binding
T1 construct: Hexa-histidine tag with TEV protease cleavage site (N, cleaved yes); made in house; host or cells: E. coli Rosetta Gami B(DE3) pLysS
T1 sequence (P39897 whole entry W136A): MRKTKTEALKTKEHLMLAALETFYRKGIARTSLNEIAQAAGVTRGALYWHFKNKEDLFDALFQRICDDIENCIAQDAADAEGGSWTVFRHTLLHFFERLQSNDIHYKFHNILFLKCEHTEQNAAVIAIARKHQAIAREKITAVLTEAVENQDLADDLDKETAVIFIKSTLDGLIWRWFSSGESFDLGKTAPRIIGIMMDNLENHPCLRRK

FA19-rpoH-lacZ = test: Gonococcal growth in liquid culture (GC broth) with hormones (Fig S7)
[1] = rpoH-lacZ, ΔmtrR + mtrR D171A in trans, 6.25 µM hormone, single replicate
[2] = rpoH-lacZ, ΔmtrR + mtrR D171A in trans, 12.5 µM hormone, single replicate
[3] = rpoH-lacZ, ΔmtrR + mtrR D171A in trans, 25 µM hormone, single replicate
[4] = rpoH-lacZ, ΔmtrR + mtrR D171A in trans, 50 µM hormone, single replicate

Compound: C[C@]12CC[C@@H]3c4ccc(O)cc4CC[C@H]3[C@@H]1CC[C@@H]2O [β-Estradiol, β-estradiol]
- Miller units, Mean (rpoH-lacZ expression; Mean of plate rows 5-8, plate columns 1-6 (first strain), 6.25 µM hormone): 42 Miller units
- Miller units, Mean (rpoH-lacZ expression; Mean of plate rows 5-8, plate columns 1-6 (first strain), 12.5 µM hormone): 61 Miller units
- Miller units, Mean (rpoH-lacZ expression; Mean of plate rows 5-8, plate columns 1-6 (first strain), 25 µM hormone): 70 Miller units
- Miller units, Mean (rpoH-lacZ expression; Mean of plate rows 5-8, plate columns 1-6 (first strain), 50 µM hormone): 78 Miller units
- Miller units, Mean (rpoH-lacZ expression; Mean of plate rows 5-8, plate columns 7-12 (second strain), 6.25 µM hormone): 73.6 Miller units
- Miller units, Mean (rpoH-lacZ expression; Mean of plate rows 5-8, plate columns 7-12 (second strain), 12.5 µM hormone): 75.3 Miller units
- Miller units, Mean (rpoH-lacZ expression; Mean of plate rows 5-8, plate columns 7-12 (second strain), 25 µM hormone): 76.5 Miller units
- Miller units, Mean (rpoH-lacZ expression; Mean of plate rows 5-8, plate columns 7-12 (second strain), 50 µM hormone): 79.6 Miller units
- induction of rpoH expression (rpoH-lacZ expression; complemented (MtrR+) strains, increasing hormone): could be induced
- induction of rpoH expression (rpoH-lacZ expression; loss of MtrR or MtrR-D171A strain): abrogated
- Miller units (rpoH-lacZ expression; [1]): 73 Miller units
- β-galactosidase activity (Miller units) (rpoH-lacZ expression; [1]): 64 Miller units and 67 Miller units and 90 Miller units
- Miller units (rpoH-lacZ expression; [2]): 67 Miller units
- β-galactosidase activity (Miller units) (rpoH-lacZ expression; [2]): 68 Miller units and 72 Miller units and 94 Miller units
- Miller units (rpoH-lacZ expression; [3]): 76 Miller units
- β-galactosidase activity (Miller units) (rpoH-lacZ expression; [3]): 84 Miller units and 81 Miller units and 65 Miller units
- Miller units (rpoH-lacZ expression; [4]): 82 Miller units
- β-galactosidase activity (Miller units) (rpoH-lacZ expression; [4]): 80 Miller units and 76 Miller units
- β-galactosidase activity (Miller units) (rpoH-lacZ expression; rpoH-lacZ, ΔmtrR + mtrR WT in trans, 6.25 µM hormone, single replicate): 29 Miller units and 43 Miller units and 45 Miller units and 49 Miller units
- β-galactosidase activity (Miller units) (rpoH-lacZ expression; rpoH-lacZ, ΔmtrR + mtrR WT in trans, 12.5 µM hormone, single replicate): 60 Miller units and 54 Miller units and 64 Miller units and 67 Miller units
- β-galactosidase activity (Miller units) (rpoH-lacZ expression; rpoH-lacZ, ΔmtrR + mtrR WT in trans, 25 µM hormone, single replicate): 91 Miller units and 57 Miller units and 68 Miller units and 64 Miller units
- β-galactosidase activity (Miller units) (rpoH-lacZ expression; rpoH-lacZ, ΔmtrR + mtrR WT in trans, 50 µM hormone, single replicate): 89 Miller units and 63 Miller units and 78 Miller units and 82 Miller units
- β-galactosidase activity (Miller units) (rpoH-lacZ expression; rpoH-lacZ, ΔmtrR strain, 6.25 µM hormone, single replicate): 253 Miller units and 160 Miller units and 91 Miller units
- β-galactosidase activity (Miller units) (rpoH-lacZ expression; rpoH-lacZ, ΔmtrR strain, 12.5 µM hormone, single replicate): 161 Miller units and 99 Miller units
- β-galactosidase activity (Miller units) (rpoH-lacZ expression; rpoH-lacZ, ΔmtrR strain, 25 µM hormone, single replicate): 232 Miller units and 156 Miller units and 133 Miller units
- β-galactosidase activity (Miller units) (rpoH-lacZ expression; rpoH-lacZ, ΔmtrR strain, 50 µM hormone, single replicate): 195 Miller units and 151 Miller units and 114 Miller units
- Miller units (rpoH-lacZ expression; rpoH-lacZ, ΔmtrR, 6.25 µM hormone, single replicate): 150 Miller units
- Miller units (rpoH-lacZ expression; rpoH-lacZ, ΔmtrR, 12.5 µM hormone, single replicate): 165 Miller units
- Miller units (rpoH-lacZ expression; rpoH-lacZ, ΔmtrR, 25 µM hormone, single replicate): 177 Miller units
- Miller units (rpoH-lacZ expression; rpoH-lacZ, ΔmtrR, 50 µM hormone, single replicate): 178 Miller units
- Miller units (rpoH-lacZ expression; single well, plate rows 5-8, plate columns 1-6 (first strain), 6.25 µM hormone): 29 Miller units and 43 Miller units and 45 Miller units and 49 Miller units
- Miller units (rpoH-lacZ expression; single well, plate rows 5-8, plate columns 1-6 (first strain), 12.5 µM hormone): 60 Miller units and 54 Miller units and 64 Miller units and 67 Miller units
- Miller units (rpoH-lacZ expression; single well, plate rows 5-8, plate columns 1-6 (first strain), 25 µM hormone): 91 Miller units and 57 Miller units and 68 Miller units and 64 Miller units
- Miller units (rpoH-lacZ expression; single well, plate rows 5-8, plate columns 1-6 (first strain), 50 µM hormone): 89 Miller units and 63 Miller units and 78 Miller units and 82 Miller units
- Miller units (rpoH-lacZ expression; single well, plate rows 5-8, plate columns 7-12 (second strain), 6.25 µM hormone): 64 Miller units and 67 Miller units and 73 Miller units and 90 Miller units
- Miller units (rpoH-lacZ expression; single well, plate rows 5-8, plate columns 7-12 (second strain), 12.5 µM hormone): 68 Miller units and 72 Miller units and 67 Miller units and 94 Miller units
- Miller units (rpoH-lacZ expression; single well, plate rows 5-8, plate columns 7-12 (second strain), 25 µM hormone): 84 Miller units and 81 Miller units and 76 Miller units and 65 Miller units
- Miller units (rpoH-lacZ expression; single well, plate rows 5-8, plate columns 7-12 (second strain), 50 µM hormone): 80 Miller units and 82 Miller units and 76 Miller units
- β-galactosidase activity, rpoH-lacZ, Mean (rpoH-lacZ expression; strain WT (FA19/pLES94-rpoH), hormone 6.25 µM): 83 Miller units
- β-galactosidase activity, rpoH-lacZ, Mean (rpoH-lacZ expression; strain WT (FA19/pLES94-rpoH), hormone 12.5 µM): 113 Miller units
- β-galactosidase activity, rpoH-lacZ, Mean (rpoH-lacZ expression; strain WT (FA19/pLES94-rpoH), hormone 25 µM): 148 Miller units
- β-galactosidase activity, rpoH-lacZ, Mean (rpoH-lacZ expression; strain WT (FA19/pLES94-rpoH), hormone 50 µM): 162 Miller units
- activation of rpoH (rpoH-lacZ expression; strain producing MtrR R176E): clearly weaker activation
- β-galactosidase activity, rpoH-lacZ, Mean (rpoH-lacZ expression; strain ΔmtrR (FA19 ∆mtrR/pLES94-rpoH), hormone 6.25 µM): 163 Miller units
- β-galactosidase activity, rpoH-lacZ, Mean (rpoH-lacZ expression; strain ΔmtrR (FA19 ∆mtrR/pLES94-rpoH), hormone 12.5 µM): 152 Miller units
- β-galactosidase activity, rpoH-lacZ, Mean (rpoH-lacZ expression; strain ΔmtrR (FA19 ∆mtrR/pLES94-rpoH), hormone 25 µM): 175 Miller units
- β-galactosidase activity, rpoH-lacZ, Mean (rpoH-lacZ expression; strain ΔmtrR (FA19 ∆mtrR/pLES94-rpoH), hormone 50 µM): 160 Miller units
- β-galactosidase activity, rpoH-lacZ, Mean (rpoH-lacZ expression; strain ΔmtrR + mtrR D171A (pGCC3-mtrR D171A), hormone 6.25 µM): 74 Miller units
- β-galactosidase activity, rpoH-lacZ, Mean (rpoH-lacZ expression; strain ΔmtrR + mtrR D171A (pGCC3-mtrR D171A), hormone 12.5 µM): 75 Miller units
- β-galactosidase activity, rpoH-lacZ, Mean (rpoH-lacZ expression; strain ΔmtrR + mtrR D171A (pGCC3-mtrR D171A), hormone 25 µM): 76 Miller units
- β-galactosidase activity, rpoH-lacZ, Mean (rpoH-lacZ expression; strain ΔmtrR + mtrR D171A (pGCC3-mtrR D171A), hormone 50 µM): 80 Miller units
- β-galactosidase activity, rpoH-lacZ, Mean (rpoH-lacZ expression; strain ΔmtrR + mtrR WT (pGCC3-mtrR), hormone 6.25 µM): 42 Miller units
- β-galactosidase activity, rpoH-lacZ, Mean (rpoH-lacZ expression; strain ΔmtrR + mtrR WT (pGCC3-mtrR), hormone 12.5 µM): 61 Miller units
- β-galactosidase activity, rpoH-lacZ, Mean (rpoH-lacZ expression; strain ΔmtrR + mtrR WT (pGCC3-mtrR), hormone 25 µM): 70 Miller units
- β-galactosidase activity, rpoH-lacZ, Mean (rpoH-lacZ expression; strain ΔmtrR + mtrR WT (pGCC3-mtrR), hormone 50 µM): 78 Miller units
- Kd (MtrR W136A): 1060 ± 40 nM
- growth curve reading after BLANKING (FA19-rpoH-lacZ; 0 hr, 0.1 µM): 0.013
- growth curve reading, raw replicates (FA19-rpoH-lacZ; 0 hr, 0.1 µM): 0.046
- growth curve reading after BLANKING (FA19-rpoH-lacZ; 0 hr, 1 µM): 0.013
- growth curve reading, raw replicates (FA19-rpoH-lacZ; 0 hr, 1 µM): 0.046
- growth curve reading after BLANKING (FA19-rpoH-lacZ; 0 hr, 10 µM): 0.013
- growth curve reading, raw replicates (FA19-rpoH-lacZ; 0 hr, 10 µM): 0.046
- growth curve reading after BLANKING (FA19-rpoH-lacZ; 0 hr, 25 µM): 0.013
- growth curve reading, raw replicates (FA19-rpoH-lacZ; 0 hr, 25 µM): 0.046
- growth curve reading after BLANKING (FA19-rpoH-lacZ; 0 hr, 50 µM): 0.013
- growth curve reading, raw replicates (FA19-rpoH-lacZ; 0 hr, 50 µM): 0.046
- growth curve reading after BLANKING (FA19-rpoH-lacZ; 1.18 hr, 0.1 µM): 0.020
- growth curve reading, raw replicates (FA19-rpoH-lacZ; 1.18 hr, 0.1 µM): 0.052 and 0.053
